Measured values reported in publication PMC12584665, “In vitro and in vivo efficacy of vancomycin against Elizabethkingia species and the impact of increased vancomycin MICs” (Microbiology Spectrum, 2025).
Values after ≈ are worked out from the molar mass of the structure shown. Read-outs that look alike come from different tables or passages of the source.

Assays:
[1] = system: Elizabethkingia anophelis; assay: Minimum bactericidal concentration (MBC) test; format: cell-based; conditions: for MBC: Elizabethkingia anophelis
Excerpt: (§1) Eighteen E. anophelis clinical isolates from the nationwide surveillance program (Taiwan Surveillance of Antimicrobial Resistance) were well characterized in our previous study ([7]) and were selected for susceptibility testing and minimum bactericidal concentration (MBC) assays. Among them, five isolates with different clonality (underlined strains in Fig. S1) were selected for the time-kill assays and in vivo experiments.
(§2) Broth microdilution, disc diffusion, Etest, and agar dilution assays were conducted following CLSI guidelines to determine vancomycin MICs ([8]). […] Criteria for Staphylococcus spp. were not adopted due to the lack of a zone diameter breakpoint. MBCs were determined following CLSI guidelines ([8]).

E. anophelis = assay: Broth microdilution MIC of laboratory-induced and gene-edited mutants; format: cell-based, Elizabethkingia anophelis; conditions: for MIC: Elizabethkingia anophelis
Method: E. anophelis and non-anophelis species with baseline vancomycin MICs of 16–32 mg/L (Table 2) were well characterized in our previous study ([7]) and were included in the induction study. The induction of mutants with elevated vancomycin MICs was modified from a previous study ([18]). Briefly, 10^9 cfu of wild-type E. anophelis (2008S01-229) was plated on brain heart infusion agar (Becton Dickinson, Franklin Lakes, NJ, USA) with twofold multiples of vancomycin (32 –256 mg/L). Isolates from viable colonies were subjected to broth microdilution. Genomic comparison between the parental strain (2008S01-229) and elevated-MIC mutants was performed to identify the mutated gene conferring increased vancomycin MIC. To determine whether similar genetic changes occurred in other Elizabethkingia species, non-anophelis isolates were subjected to the same induction protocol. The corresponding target genes were then analyzed by Sanger sequencing to assess the presence of analogous mutations. The target gene related to elevated vancomycin MICs was also validated via scarless gene editing.
The suicide plasmid pUT-ermF, which contains two key selection markers: the ermF gene for erythromycin resistance and the sacB gene for sucrose sensitivity-based counterselection, was used as previously described ([19]). DNA fragments corresponding to the upstream and downstream flanking regions of the target gene were cloned into pUT-ermF. The recombinant plasmids were first introduced into E. coli S17–λpir and subsequently transferred into Elizabethkingia spp. via conjugation. The first recombination events were selected on LB agar containing 250 µg/mL erythromycin, and the second recombination (plasmid resolution) was selected by plating on LB agar with 10% sucrose (without NaCl). Colonies were screened and confirmed by PCR sequencing. Genome sequencing was carried out to confirm no other inadvertent changes.

[2] = system: Elizabethkingia anophelis; assay: Galleria mellonella (wax moth) infection survival model; format: in vivo
Method: In vivo efficacy was assessed by wax moth (Galleria mellonella), murine pneumonia, and murine thigh infection models following the protocols of our previous study ([2]). The Animal Ethics Committee of Taiwan’s National Health Research Institutes approved the murine pneumonia and thigh infection models.
G. mellonella was reared at the National Health Research Institutes of Taiwan. Caterpillars in the final instar larval stage (weight ca. 250 mg) were used. […] A 10 µL aliquot of E. anophelis at the predetermined lethal dose was injected into the hemocoel of each caterpillar via the last left proleg. Antibiotics were administered once into another proleg at the indicated time points; vancomycin (5, 10, or 20 mg/kg, 2 h post-inoculation); other glycopeptides (teicoplanin, 10 mg/kg, 30 min post-inoculation; dalbavancin, 8.75 mg/kg, 2 h post-inoculation; oritavancin, 15 mg/kg, 1 h post-inoculation) ([11][–][13]); or daptomycin (10 mg/kg, 2 h post-inoculation) ([13]). Each treatment group contained 6–8 caterpillars. A control group injected with sterile PBS was included to monitor for trauma-related mortality. Caterpillars were incubated at 37°C, and survival was recorded twice daily for 72 h.

[3] = system: Elizabethkingia anophelis; assay: Etest MIC; format: cell-based
Excerpt: as §1, §2

[4] = system: Elizabethkingia anophelis; assay: Agar dilution (AD) MIC; format: cell-based
Excerpt: as §1, §2

[5] = system: Elizabethkingia anophelis; assay: Disc diffusion (DD) zone diameter; format: cell-based
Excerpt: as §1, §2

[6] = E. anophelis clinical isolate 2008N05-106
[7] = E. anophelis clinical isolate 2008S01-229
[8] = E. anophelis clinical isolate 2014C06-157
[9] = E. anophelis clinical isolate 2016N17-576
[10] = E. anophelis clinical isolate 2018C04-213
[11] = E. anophelis clinical isolate 2018C04-224
[12] = E. anophelis clinical isolate 2018C07-210
[13] = E. anophelis clinical isolate 2018C07-234
[14] = E. anophelis clinical isolate 2018C08-127
[15] = E. anophelis clinical isolate 2018E03-151
[16] = E. anophelis clinical isolate 2018E04-135
[17] = E. anophelis clinical isolate 2018N16-057
[18] = E. anophelis clinical isolate 2018N17-036
[19] = E. anophelis clinical isolate 2018N17-073
[20] = E. anophelis clinical isolate 2018N17-153
[21] = E. anophelis clinical isolate 2018N21-226
[22] = E. anophelis clinical isolate 2018S09-023
[23] = E. anophelis clinical isolate 2018S11-172

CN[C@H](CC(C)C)C(=O)N[C@H]1C(=O)N[C@@H](CC(N)=O)C(=O)N[C@H]2C(=O)N[C@H]3C(=O)N[C@H](C(=O)N[C@H](C(=O)O)c4cc(O)cc(O)c4-c4cc3ccc4O)[C@H](O)c3ccc(c(Cl)c3)Oc3cc2cc(c3O[C@@H]2O[C@H](CO)[C@@H](O)[C@H](O)[C@H]2O[C@H]2C[C@](C)(N)[C@H](O)[C@H](C)O2)Oc2ccc(cc2Cl)[C@H]1O [Vancomycin]
MBCs relative to MICs ([1]; 18 E. anophelis isolates): within a twofold range of MICs
MBC [1, 6]: 16 µg/mL (≈ 11 µM)
MBC [1, 7]: 32 µg/mL (≈ 22.1 µM)
MBC [1, 8]: 16 µg/mL (≈ 11 µM)
MBC [1, 9]: 32 µg/mL (≈ 22.1 µM)
MBC [1, 10]: 16 µg/mL (≈ 11 µM)
MBC [1, 11]: 16 µg/mL (≈ 11 µM)
MBC [1, 12]: 16 µg/mL (≈ 11 µM)
MBC [1, 13]: 16 µg/mL (≈ 11 µM)
MBC [1, 14]: 16 µg/mL (≈ 11 µM)
MBC [1, 15]: 16 µg/mL (≈ 11 µM)
MBC [1, 16]: 16 µg/mL (≈ 11 µM)
MBC [1, 17]: 16 µg/mL (≈ 11 µM)
MBC [1, 18]: 32 µg/mL (≈ 22.1 µM)
MBC [1, 19]: 16 µg/mL (≈ 11 µM)
MBC [1, 20]: 16 µg/mL (≈ 11 µM)
MBC [1, 21]: 16 µg/mL (≈ 11 µM)
MBC [1, 22]: 16 µg/mL (≈ 11 µM)
MBC [1, 23]: 32 µg/mL (≈ 22.1 µM)
MIC (E. anophelis; induced E. anophelis mutant, pbp4 692InsC, Frameshift, 1 isolate): 512 µg/mL
MIC (E. anophelis; induced E. anophelis mutant, pbp4 736Del8bp, Frameshift, 1 isolate): 512 µg/mL
MIC (E. anophelis; induced E. anophelis mutant, pbp4 827DelA, Frameshift, 1 isolate): 128 µg/mL
MIC (E. anophelis; scarless deletion of pbp4 in wild-type E. anophelis 2008N05-106, read-out: MIC): > 512 µg/mL
MIC (E. anophelis; wild-type E. anophelis parent strain (2008S01-229), read-out: Parent strain MIC): 32 µg/mL
effect on MIC (E. anophelis; replacement of exbD with Thr28Pro mutation in 2008N05-106): did not affect the vancomycin MIC
survival of infected wax moths ([2]; 10 mg/kg once, 2 h post-inoculation, five E. anophelis isolates, 72 h, 37°C, 6-8 caterpillars per group): improved the survival
improvement of larval survival ([2]; 10 mg/kg, infection by 2008S01-229-VAN-R compared to 2008S01-229): hampered
dose dependence of survival of infected wax moths ([2]; 5, 10 and 20 mg/kg once, 2 h post-inoculation, two clinical isolates): dose-dependent effect
MIC [3, 6]: 24 µg/mL (≈ 16.6 µM)
MIC [3, 7]: 16 µg/mL (≈ 11 µM)
MIC [3, 8]: 16 µg/mL (≈ 11 µM)
MIC [3, 9]: 16 µg/mL (≈ 11 µM)
MIC [3, 10]: 16 µg/mL (≈ 11 µM)
MIC [3, 11]: 16 µg/mL (≈ 11 µM)
MIC [3, 12]: 16 µg/mL (≈ 11 µM)
MIC [3, 13]: 16 µg/mL (≈ 11 µM)
MIC [3, 14]: 16 µg/mL (≈ 11 µM)
MIC [3, 15]: 16 µg/mL (≈ 11 µM)
MIC [3, 16]: 16 µg/mL (≈ 11 µM)
MIC [3, 17]: 16 µg/mL (≈ 11 µM)
MIC [3, 18]: 16 µg/mL (≈ 11 µM)
MIC [3, 19]: 16 µg/mL (≈ 11 µM)
MIC [3, 20]: 16 µg/mL (≈ 11 µM)
MIC [3, 21]: 24 µg/mL (≈ 16.6 µM)
MIC [3, 22]: 16 µg/mL (≈ 11 µM)
MIC [3, 23]: 32 µg/mL (≈ 22.1 µM)
MIC [4, 6]: 16 µg/mL (≈ 11 µM)
MIC [4, 7]: 16 µg/mL (≈ 11 µM)
MIC [4, 8]: 16 µg/mL (≈ 11 µM)
MIC [4, 9]: 16 µg/mL (≈ 11 µM)
MIC [4, 10]: 16 µg/mL (≈ 11 µM)
MIC [4, 11]: 16 µg/mL (≈ 11 µM)
MIC [4, 12]: 16 µg/mL (≈ 11 µM)
MIC [4, 13]: 16 µg/mL (≈ 11 µM)
MIC [4, 14]: 16 µg/mL (≈ 11 µM)
MIC [4, 15]: 16 µg/mL (≈ 11 µM)
MIC [4, 16]: 16 µg/mL (≈ 11 µM)
MIC [4, 17]: 16 µg/mL (≈ 11 µM)
MIC [4, 18]: 16 µg/mL (≈ 11 µM)
MIC [4, 19]: 16 µg/mL (≈ 11 µM)
MIC [4, 20]: 16 µg/mL (≈ 11 µM)
MIC [4, 21]: 16 µg/mL (≈ 11 µM)
MIC [4, 22]: 16 µg/mL (≈ 11 µM)
MIC [4, 23]: 32 µg/mL (≈ 22.1 µM)
zone diameters, all isolates ([5]; 18 E. anophelis isolates, disc diffusion, susceptibility breakpoint >= 17 mm (Enterococcus spp.)): < 17 mm
DD zone diameter [5, 6]: 15 mm
DD zone diameter [5, 7]: 15 mm
DD zone diameter [5, 8]: 15 mm
DD zone diameter [5, 9]: 15 mm
DD zone diameter [5, 10]: 15 mm
DD zone diameter [5, 11]: 15 mm
DD zone diameter [5, 12]: 14 mm
DD zone diameter [5, 13]: 15 mm
DD zone diameter [5, 14]: 14 mm
DD zone diameter [5, 15]: 14 mm
DD zone diameter [5, 16]: 14 mm
DD zone diameter [5, 17]: 15 mm
DD zone diameter [5, 18]: 15 mm
DD zone diameter [5, 19]: 14 mm
DD zone diameter [5, 20]: 14 mm
DD zone diameter [5, 21]: 13 mm
DD zone diameter [5, 22]: 15 mm
DD zone diameter [5, 23]: 13 mm
